Patent US10464964B2, “Galactoside inhibitor of galectins” (Galecto Biotech AB, priority 2015, dated 2019)
pKd: −log10 of the molar value. Converted amounts (≈) assume the structure as drawn. Like-named read-outs stand apart in the source and are kept apart here.

How the values were obtained:
Galectin 1 = Galectin 1 (Homo sapiens, UniProt P09382); assay: fluorescence anisotropy assay, inhibition of galectin / fluorescein tagged saccharide probe interaction
galectin-3 = galectin-3 (Homo sapiens, UniProt P17931); assay: as above
galectin-3, sequence (P17931 whole entry): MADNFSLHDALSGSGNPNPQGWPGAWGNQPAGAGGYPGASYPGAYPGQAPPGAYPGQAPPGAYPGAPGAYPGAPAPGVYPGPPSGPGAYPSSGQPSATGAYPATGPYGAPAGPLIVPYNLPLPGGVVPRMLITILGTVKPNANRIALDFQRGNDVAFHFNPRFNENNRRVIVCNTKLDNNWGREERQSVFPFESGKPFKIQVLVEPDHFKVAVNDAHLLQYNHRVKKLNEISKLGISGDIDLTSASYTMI

Solubility = format: physicochemical
galectins = conditions: cited from earlier work
[1] = aqueous buffer, 0.1 M phosphate buffer pH 6.5, read-out: Solubility buffer
[2] = water, read-out: Solubility water

Galectin 1, sequence (P09382 whole entry): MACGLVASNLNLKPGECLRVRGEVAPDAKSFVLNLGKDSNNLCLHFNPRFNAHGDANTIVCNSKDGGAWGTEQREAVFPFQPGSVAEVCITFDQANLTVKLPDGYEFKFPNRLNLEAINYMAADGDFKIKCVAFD

Row | pKd (Galectin 1) | pKd (galectin-3) | solubility (Solubility; [1]) [µg/mL] | solubility (Solubility; [2]) [µg/mL] | SMILES | affinity, times lower than lactose (galectins; relative to lactose) | pKd (galectins; all galectins)
1 | 6.92 | 7.92 |  |  | COc1ccc(-c2cn(C3C(O)[C@@H](CO)OC(S[C@@H]4OC(CO)[C@H](O)[C@H](n5cc(-c6ccc(OC)nc6)nn5)C4O)[C@@H]3O)nn2)cn1 (stereo partly drawn) [Example S4b, 3,3′-Dideoxy-3,3′-bis-[4-(6-methoxypyridin-3-yl)-1H-1,2,3-triazol-1-yl]-1,1′-sulfanediyl-di-β-D-galactopyranoside] |  | 
2 | 7.42 | 9.00 | 1400 (≈ 2100 µM) |  | OCC1O[C@@H](SC2O[C@H](CO)C(O)C(n3cc(-c4ccccn4)nn3)[C@H]2O)C(O)C(n2cc(-c3cc(F)c(F)c(F)c3)nn2)[C@H]1O (stereo in doubt) [Example S8d, 3,3′-Dideoxy-3-[4-(pyridin-2-yl)-1H-1,2,3-triazol-1-yl]-3′-[4-(3,4,5-trifluorophenyl)-1H-1,2,3-triazol-1-yl]-1,1′-sulfanediyl-di-β-D-galactopyranoside] |  | 
3 | 7.14 | 9.00 | 1300 (≈ 1950 µM) |  | OCC1O[C@@H](SC2O[C@H](CO)C(O)C(n3cc(-c4ccncc4)nn3)[C@H]2O)C(O)C(n2cc(-c3cc(F)c(F)c(F)c3)nn2)[C@H]1O (stereo in doubt) [Example S8e, 3,3′-Dideoxy-3-[4-(pyridin-4-yl)-1H-1,2,3-triazol-1-yl]-3′-[4-(3,4,5-trifluorophenyl)-1H-1,2,3-triazol-1-yl]-1,1′-sulfanediyl-di-β-D-galactopyranoside] |  | 
4 | 7.47 | > 8.70 | 1800 (≈ 2640 µM) |  | Nc1ccc(-c2cn(C3C(O)[C@@H](CO)OC(S[C@@H]4OC(CO)[C@H](O)C(n5cc(-c6cc(F)c(F)c(F)c6)nn5)C4O)[C@@H]3O)nn2)cn1 (stereo in doubt) [Example S8g, 3-[4-(2-aminopyridin-5-yl)-3,3′-dideoxy-1H-1,2,3-triazol-1-yl]-3′-[4-(3,4,5-trifluorophenyl)-1H-1,2,3-triazol-1-yl]-1,1′-sulfanediyl-di-β-D-galactopyranoside] |  | 
5 | 7.26 | > 8.70 | 3300 (≈ 4810 µM) |  | OCC1O[C@@H](SC2O[C@H](CO)C(O)C(n3cc(-c4ncc(F)cn4)nn3)[C@H]2O)C(O)C(n2cc(-c3cc(F)c(F)c(F)c3)nn2)[C@H]1O (stereo in doubt) [Example S8h, 3,3′-Dideoxy-3-[4-(5-fluoro-1,3-pyrimidin-2-yl)-1H-1,2,3-triazol-1-yl]-3′-[4-(3,4,5-trifluorophenyl)-1H-1,2,3-triazol-1-yl]-1,1′-sulfanediyl-di-β-D-galactopyranoside] |  | 
6 |  |  |  |  | O=C[C@H](O)[C@@H](O)[C@@H](O)[C@H](O)CO [D-galactose] | 50-100 times | 
7 | 6.83 | 8.30 | 770 (≈ 1060 µM) |  | CC(=O)Nc1ccc(-c2cn(C3C(O)[C@@H](CO)OC(S[C@@H]4OC(CO)[C@H](O)C(n5cc(-c6cc(F)c(F)c(F)c6)nn5)C4O)[C@@H]3O)nn2)cn1 (stereo in doubt) [Example S8f, 3-[4-((2-acetamid-N-yl)-pyridin-5-yl)-3,3′-dideoxy-1H-1,2,3-triazol-1-yl]-3′-[4-(3,4,5-trifluorophenyl)-1H-1,2,3-triazol-1-yl]-1,1′-sulfanediyl-di-β-D-galactopyranoside] |  | 
8 |  |  |  |  | OC[C@H]1O[C@@H](O[C@H]2[C@H](O)[C@@H](O)C(O)O[C@@H]2CO)[C@H](O)[C@@H](O)[C@H]1O (stereo partly shown) [lactose] |  | 3.00 to 3.30
9 | 6.13 | 7.60 | 200 (≈ 244 µM) |  | OCC1O[C@@H](SC2O[C@H](CO)C(O)C(n3cc(-c4ncc(C(F)(F)F)cc4Cl)nn3)[C@H]2O)C(O)C(n2cc(-c3ncc(C(F)(F)F)cc3Cl)nn2)[C@H]1O (stereo in doubt) [Example S4d, 3,3′-Dideoxy-3,3′-bis-[4-(3-chloro-5-trifluoromethyl-pyridin-2-yl)-1H-1,2,3-triazol-1-yl]-1,1′-sulfanediyl-di-β-D-galactopyranoside] |  | 
10 | 6.22 | 6.88 |  |  | Cn1cncc1-c1cn(C2C(O)[C@H](SC3O[C@H](CO)C(O)C(n4cc(-c5cncn5C)nn4)[C@H]3O)OC(CO)[C@@H]2O)nn1 (stereo in doubt) [Example S4c, 3,3′-Dideoxy-3,3′-bis-[4-(1-methyl-1H-imidazol-5-yl)-1H-1,2,3-triazol-1-yl]-1,1′-sulfanediyl-di-β-D-galactopyranoside] |  | 
11 | 7.40 | > 8.30 |  |  | OCC1O[C@@H](SC2O[C@H](CO)C(O)C(n3cc(-c4ccc(F)cn4)nn3)[C@H]2O)C(O)C(n2cc(-c3cc(F)c(F)c(F)c3)nn2)[C@H]1O (stereo in doubt) [Example S7, 3,3′-Dideoxy-3-[4-(5-fluoropyridin-2-yl)-1H-1,2,3-triazol-1-yl]-3′-[4-(3,4,5-trifluorophenyl)-1H-1,2,3-triazol-1-yl]-1,1′-sulfanediyl-di-β-D-galactopyranoside] |  | 
12 | 6.68 | 7.38 | 450 (≈ 732 µM) |  | OCC1O[C@@H](SC2O[C@H](CO)C(O)C(n3cc(-c4ccccn4)nn3)[C@H]2O)C(O)C(n2cc(-c3ccccn3)nn2)[C@H]1O (stereo in doubt) [Example S4f, 3,3′-Dideoxy-3,3′-bis-[4-(pyridin-2-yl)-1H-1,2,3-triazol-1-yl]-1,1′-sulfanediyl-di-β-D-galactopyranoside] |  | 
13 | 7.10 | > 8.70 | 360 (≈ 538 µM) |  | OCC1O[C@@H](SC2O[C@H](CO)C(O)C(n3cc(-c4cncnc4)nn3)[C@H]2O)C(O)C(n2cc(-c3cc(F)c(F)c(F)c3)nn2)[C@H]1O (stereo in doubt) [Example S8b, 3,3′-Dideoxy-3-[4-(1,3-pyrimidin-5-yl)-1H-1,2,3-triazol-1-yl]-3′-[4-(3,4,5-trifluorophenyl)-1H-1,2,3-triazol-1-yl]-1,1′-sulfanediyl-di-β-D-galactopyranoside] |  | 
14 | 7.15 | > 8.70 | 4600 (≈ 6880 µM) |  | OCC1O[C@@H](SC2O[C@H](CO)C(O)C(n3cc(-c4ncccn4)nn3)[C@H]2O)C(O)C(n2cc(-c3cc(F)c(F)c(F)c3)nn2)[C@H]1O (stereo in doubt) [Example S8c, 3,3′-Dideoxy-3-[4-(1,3-pyrimidin-2-yl)-1H-1,2,3-triazol-1-yl]-3′-[4-(3,4,5-trifluorophenyl)-1H-1,2,3-triazol-1-yl]-1,1′-sulfanediyl-di-β-D-galactopyranoside] |  | 
15 | 7.68 | 8.00 | 2600 (≈ 4000 µM) | 4300 (≈ 6610 µM) | OCC1O[C@@H](SC2O[C@H](CO)C(O)C(n3cc(-c4ccc(F)cn4)nn3)[C@H]2O)C(O)C(n2cc(-c3ccc(F)cn3)nn2)[C@H]1O (stereo in doubt) [Example S4a, 3,3′-Dideoxy-3,3′-bis-[4-(5-fluoro-2-pyridin-2-yl)-1H-1,2,3-triazol-1-yl]-1,1′-sulfanediyl-di-β-D-galactopyranoside] |  | 
16 | 6.41 | 7.36 | 7 (≈ 11.4 µM) |  | OCC1O[C@@H](S[C@@H]2O[C@H](CO)C(O)C(n3cc(-c4cncnc4)nn3)[C@H]2O)C(O)[C@@H](n2cc(-c3cncnc3)nn2)[C@H]1O (stereo partly drawn) [Example S4e, 3,3′-Dideoxy-3,3′-bis-[4-(pyrimidin-5-yl)-1H-1,2,3-triazol-1-yl]-1,1′-sulfanediyl-di-β-D-galactopyranoside] |  | 
17 | 7.42 | 8.70 | 41 (≈ 61.4 µM) |  | OCC1O[C@@H](SC2O[C@H](CO)C(O)C(n3cc(-c4cccnc4)nn3)[C@H]2O)C(O)C(n2cc(-c3cc(F)c(F)c(F)c3)nn2)[C@H]1O (stereo in doubt) [Example S8a, 3,3′-3-[4-(pyridin-3-yl)-1H-1,2,3-triazol-1-yl]-3′-[4-(3,4,5-trifluorophenyl)-1H-1,2,3-triazol-1-yl]-1,1′-sulfanediyl-di-β-D-galactopyranoside] |  | 
18 |  |  |  | 400 (≈ 617 µM) | OCC1O[C@@H](SC2O[C@H](CO)C(O)C(n3cc(-c4cccc(F)c4)nn3)[C@H]2O)C(O)[C@@H](n2cc(-c3cccc(F)c3)nn2)[C@H]1O (stereo partly drawn) [Ref 1, 3,3′-bis-[4-(3-fluorophenyl)-1H-1,2,3-triazol-1-yl]-1,1′-sulfanediyl-di-β-D-galactopyranoside, reference compound] |  | 
